The test system of experiment [1] is mouse sciatic nerve autologous transplantation model. The experiment is described as follows: Mouse sciatic nerve autologous transplantation model: number and area of myelinated axons. It is filed as in vivo. To be noted: 30 mg/kg/day to the stomach, one week after surgery, section 0.7 mm distal to the distal transection site. An excerpt:
Adult male C57BL/6J mice (8 weeks old; 19.5-22.0 g) were purchased from Charles River. The mice were anesthetized with isoflurane and underwent gluteal muscle incision under a sterile condition to expose the sciatic nerve in the left leg. The sciatic nerve was cut at the following two sites (1) and (2): (1) the site 3 mm distal to the first bifurcation of biceps femoris (hereinafter referred to as proximal transection site) (2) the site 3 mm distal to the proximal transection site (hereinafter referred to as distal transection site) The excised nerve segment with a length of 3 mm was confirmed to be completely cut at the two sites. The perineurium was sutured with nylon thread (10-0 black) at the proximal transection site and the distal transection site under a microscope. The remaining thread was used as a marker for finding the nerve transection site in the sacrifice of the mice. In order to reduce DMSO toxicity, a solution of 60 mg/mL zonisamide in 100% DMSO was prepared and the solution was diluted in olive oil to give a solution of 3 mg/mL zonisamide in 5% DMSO. […] Myelin sheath formation in the sciatic nerve was analyzed in six mice in each group. […] The number and area of myelinated axons in the sciatic nerve were manually measured using ImageJ software in a blinded fashion.

Experiment [2] deals with JNK1/2/3. Put plainly: JNK1/2/3 phosphorylation in NSC34 cells. It is filed as cell-based, mouse.
Experiment [3] concerns primary motor neurons. The experiment is described as follows: Scratch assay of neurite regeneration. It is filed as cell-based, mouse. To be noted: 0, 1, 10, or 20 μmol/L, 48 hours after scratch. Here is the method: Primary cultured motor neurons were seeded in a Nun Lab-Tek Chamber Slide (Thermo Scientific) coated with poly-L-lysine at 8.0×10^4 cells/cm^2×0.7 cm^2/well and then cultured in Sumilon neuron culture medium for 48 hours. Neurites of primary motor neurons were linearly scratched off with a 200 μL sterile pipette tip. The cells were immediately rinsed with PBS and cultured in Sumilon neuron culture medium containing 0, 1, 10, or 20 μmol/L zonisamide for 48 hours. The cells were fixed in 4% paraformaldehyde and immunostained with neuron-specific β-III tubulin monoclonal antibody (1:1000, MAB1195, R&D systems) and Alexa Fluor 488-conjugated goat anti-mouse secondary antibody (Life Technologies). Images of the scratched areas were acquired on a microscope (Olympus LX71). The neurite lengths of primary motor neurons in the scratched areas were automatically measured with MetaMorph software (Universal Imaging).

For experiment [4], the system named is severely crushed spinal cord model mice. Put plainly: Severely crushed spinal cord model mice: rotarod test. It counts as in vivo, mouse. An excerpt:
Female C57BL/6J mice (8 weeks old; 19.5-22.0 g) were purchased from Charles River. The female C57BL/6J mice were anesthetized by intraperitoneally administering pentobarbital sodium and underwent back incision under a sterile condition to perform laminectomy at the 10th thoracic vertebra. The spinal cord was crushed at 100 kdyn using a tip with a diameter of 1.35 mm on IH Spinal Cord Impactor. After the occurrence of hematoma in the spinal cord was confirmed under a microscope, the wound was closed and 1 ml of physiological saline was subcutaneously injected into the posterior neck region to prevent dehydration. The mice with spinal cord injury were separated into two groups in a blinded fashion. […] One day after surgery, motor function of mice in both groups was assessed using BMS score (Basso mouse scale; Li et. al. J Neurosurg Spine 4: 165-173 (2006)) in a blinded fashion to select the mice with BMS score of 1 or lower and consider them as severely crushed spinal cord model mice. […] The latency until a mouse fell off the rotarod (holding time, in seconds; a maximum latency of 300 seconds) was measured in the accelerating rotation mode with an initial speed of 2 rpm, an accelerated speed of 5 rpm/min, and a maximum speed of 40 rpm. The latency was measured 3 times at an interval of 10 minutes and the three measurements were averaged for assessment (FIG. 15).
For orientation: The rotarod test checks motor coordination on a turning rod.

The test system of experiment [5] is primary motor neurons. The experiment is described as follows: Neurite outgrowth in primary spinal cord motor neurons. It is filed as cell-based, mouse. As for the experimental part:
Primary cultured mouse embryonic spinal cord motor neurons were isolated from spinal cord embryo of C57BL/6J mouse on 13.5th day of embryonic stage (E13.5). Solutions of zonisamide in DMSO were prepared at concentrations from 200 μmol/L to […] and then added to the culture medium to obtain the final concentration of zonisamide from 1 μmol/L to 20 μmol/L. The culture medium contained 0.5% DMSO whether or not it contained zonisamide. The cells were seeded at 4.0×10^3 cells/cm^2 in a 96-well plate (Asahi Techno Glass) coated with poly-L-lysine and laminin and maintained in Sumilon neuron culture medium (Sumitomo Bakelite). After incubation for 2 days, the cells were fixed in PBS with 4% […] at ordinary temperature for 15 minutes. The cells were washed with PBS once, blocked with PBS containing 2% goat serum and 0.1% Triton-X, and immunostained with mouse anti-tau-1 monoclonal antibody (1:500, MAB3420, Millipore) and Alexa Fluor 555-conjugated goat anti-mouse secondary antibody (1:1000, Life Technologies). Neurites were automatically analyzed on ArrayScan VTI HCS Reader. The neurite length and the number of nerve branch points were quantified by evaluating the longer 200 neurites. The ratio of neurite-bearing cells was determined by counting cells having a neurite length of 25 micron or more in each well.

Where [6] appears, read: dose dependency, 1 μmol/L to 20 μmol/L, FIG. 1.

Here are results for 1 compound from patent US20210106566A1, “PHARMACEUTICAL COMPOSITION FOR TREATING AND/OR PREVENTING PERIPHERAL NEUROPATHY OR SPINAL CORD INJURY” (NATIONAL UNIVERSITY CORPORATION NAGOYA UNIVERSITY, priority 2015, published 2021).

As for `NS(=O)(=O)Cc1noc2ccccc12` [Zonisamide, 3-sulfamoylmethyl-1,2-benzisoxazole], in experiment [1], the “area of axons, increase compared to the zonisamide non-administration group” value is 3.9 fold and the number of axons entry is listed as “unchanged”. In addition, the “phosphorylation level of JNK1/2/3” value in experiment [2] was “slightly increased”. The “neurite length in the scratch assay” value in experiment [3] is listed as “dose-dependent increase”. The “holding time on rotarod” value in experiment [4] (day 28 after surgery, 30 mg/kg/day intragastrically) is 135.3 ± 16.4 s. The “holding time on rotarod compared to the control group” value in experiment [4] (days 21 and 28 after surgery) is reported as “longer”. The “neurite extension of primary motor neurons (screening of the 16 drugs)” value in experiment [5] (culture for 48 hours, tau staining) is “able to extend neurites”. For the same compound, in experiment [5] (setting [6]), the “axonal growth (average neurite length) in primary motor neurons” value is listed as “dose-dependent axonal growth” and the “number of branch points in axons of primary motor neurons” value was “dose-dependent increase”. The “ratio of neurite-bearing cells in primary motor neurons” value in experiment [5] (neurite length of 25 micron or more, FIG. 1) is “not increased”.
